Laboratory results published in US20100105641A1, “Oral Contraceptive Spray” (priority 2006, published 2010).

How the values were obtained:
[1] = Experimental: Solutions were prepared essentially according to the procedure as described in Example 1. The solubility of each one of the active ingredients desogestrel, 3-β-hydroxydesogestrel, 3-keto desogestrel and ethinyl estradiol in these solutions was tested.
[2] = human, in vivo
Experimental: Sixteen healthy female subjects were treated with 0.1 ml of the oral spray as described in Example 1 or with Marvelon® tablets (150 μg desogestrel, 30 μg ethinyl estradiol) in a cross over design. The spray was administered sublingually. Marvelon® was ingested. Serum concentration versus time profiles were obtained for etonogestrel and plasma concentration versus time profiles were obtained for ethinyl estradiol. FIGS. 2, 3, 4 and 5 show the average values of the serum/plasma concentrations versus time profiles.
This leads to the conclusion that a lower dose of either etonogestrel, or ethinyl estradiol, or both is possible for oral mucosal administration.

[3] = Cross-over study in sixteen healthy female subjects: sublingual oral spray (75 μg etonogestrel) vs ingested Cerazette tablets, serum concentration versus time profiles; assay type: in vivo, human; details: FIGS. 6 and 7; 75 μg etonogestrel spray vs Cerazette tablet
Experimental: Sixteen healthy female subjects were treated with 0.1 ml of oral spray comprising the liquid as depicted in table 6 to administer 75 μg etonogestrel, or with Cerazette® tablets (75 μg desogestrel) in a cross over design. The spray has been administered sublingually. Cerazette® has been ingested. Serum concentration versus time profiles were obtained for etonogestrel.
This leads to the conclusion that a lower dose of either etonogestrel is possible for oral mucosal administration to achieve a similar pharmacological effect.

[4] = exposure of etonogestrel after oral ingestion as its prodrug desogestrel; cited from earlier work

C#C[C@]1(O)CC[C@H]2[C@@H]3CCC4=C[C@@H](O)CC[C@@H]4[C@H]3C(=C)C[C@@]21CC [3-β-Hydroxy-desogestrel, 3-β-hydroxydesogestrel]
Solubility in Liquid 1 [1]: ≧8.8 mg/mL
Solubility in Liquid 2 [1]: ≧7.0 mg/mL
Solubility in Liquid 3 [1]: ≧6.1 mg/mL
Solubility in Liquid 4 [1]: ≧6.9 mg/mL
Solubility in Liquid 5 [1]: ≧8.7 mg/mL

C#C[C@]1(O)CC[C@H]2[C@@H]3CCc4cc(O)ccc4[C@H]3CC[C@@]21C [Ethinyl Estradiol, ethinyl estradiol]
levels of ethinyl estradiol in plasma, oral mucosal administration compared to oral ingestion of equivalent amount using a tablet [2]: much higher levels

C#C[C@]1(O)CC[C@H]2[C@@H]3CCC4=CC(=O)CC[C@@H]4[C@H]3C(=C)C[C@@]21CC [Etonogestrel, 13-ethyl-11methylene-17β-hydroxy-18,19-dinor-17α-pregnen-3-one]
levels of etonogestrel in serum, oral mucosal administration compared to oral ingestion of equivalent amount of desogestrel using a tablet [2]: much higher levels
levels of etonogestrel in serum, oral mucosal administration compared to oral ingestion of an equivalent amount of desogestrel using a tablet [3]: much higher levels
oral bioavailability [4]: about 80%
